Data as given in patent US20110039721A1, “METHOD FOR PREDICTION ABOUT CARCINOGENICITY OF SUBSTANCE IN RODENT” (Chemicals Evaluation and Research Institute, priority 2007, published 2011).

Assays:
[1] = test system: mRNA expressed from the genes (A) to (D) in rat liver; experiment: Behavior of genes (mRNA expression level, oligo-DNA microarray) in rat liver after 28-day oral administration; type: in vivo; conditions: mRNA vs vehicle control group; for Behavior of gene caused by administration of chemical substance, Gene No. 4846 / Behavior of gene caused by administration of chemical substance, Gene No. 2026 / Behavior of gene caused by administration of chemical substance, Gene No. 4218 / Behavior of gene caused by administration of chemical substance, Gene No. 6182 / Behavior of gene caused by administration of chemical substance, Gene No. 5600: gene group (A); for Behavior of gene caused by administration of chemical substance, Gene No. 4846: Unigene No. Rn.144554; for Behavior of gene caused by administration of chemical substance, Gene No. 2026 / Behavior of gene caused by administration of chemical substance, Gene No. 4218: Unigene No. Rn.167075; for Behavior of gene caused by administration of chemical substance, Gene No. 6182: Unigene No. Rn.5834; for Behavior of gene caused by administration of chemical substance, Gene No. 5600: Unigene No. Rn.9836; for Behavior of gene caused by administration of chemical substance, Gene No. 1494 / Behavior of gene caused by administration of chemical substance, Gene No. 2045 / Behavior of gene caused by administration of chemical substance, Gene No. 2203: gene group (B); for Behavior of gene caused by administration of chemical substance, Gene No. 1494: Unigene No. Rn.1430; for Behavior of gene caused by administration of chemical substance, Gene No. 2045: Unigene No. Rn.19329; for Behavior of gene caused by administration of chemical substance, Gene No. 2203: Unigene No. Rn.21240; for Behavior of gene caused by administration of chemical substance, Gene No. 533 / Behavior of gene caused by administration of chemical substance, Gene No. 725 / Behavior of gene caused by administration of chemical substance, Gene No. 1163 / Behavior of gene caused by administration of chemical substance, Gene No. 4973 / Behavior of gene caused by administration of chemical substance, Gene No. 4095 / Behavior of gene caused by administration of chemical substance, Gene No. 1334 / Behavior of gene caused by administration of chemical substance, Gene No. 6620 / Behavior of gene caused by administration of chemical substance, Gene No. 6303 / Behavior of gene caused by administration of chemical substance, Gene No. 5878 / Behavior of gene caused by administration of chemical substance, Gene No. 1131 / Behavior of gene caused by administration of chemical substance, Gene No. 1562 / Behavior of gene caused by administration of chemical substance, Gene No. 1741 / Behavior of gene caused by administration of chemical substance, Gene No. 893 / Behavior of gene caused by administration of chemical substance, Gene No. 6026 / Behavior of gene caused by administration of chemical substance, Gene No. 154 / Behavior of gene caused by administration of chemical substance, Gene No. 1993 / Behavior of gene caused by administration of chemical substance, Gene No. 813 / Behavior of gene caused by administration of chemical substance, Gene No. 2494 / Behavior of gene caused by administration of chemical substance, Gene No. 2546 / Behavior of gene caused by administration of chemical substance, Gene No. 3776 / Behavior of gene caused by administration of chemical substance, Gene No. 3929 / Behavior of gene caused by administration of chemical substance, Gene No. 1119 / Behavior of gene caused by administration of chemical substance, Gene No. 6742 / Behavior of gene caused by administration of chemical substance, Gene No. 5634: gene group (C); for Behavior of gene caused by administration of chemical substance, Gene No. 533: Unigene No. Rn.106184; for Behavior of gene caused by administration of chemical substance, Gene No. 725: Unigene No. Rn.108075; for Behavior of gene caused by administration of chemical substance, Gene No. 1163: Unigene No. Rn.11766; for Behavior of gene caused by administration of chemical substance, Gene No. 4973: Unigene No. Rn.118529; for Behavior of gene caused by administration of chemical substance, Gene No. 4095: Unigene No. Rn.119024; for Behavior of gene caused by administration of chemical substance, Gene No. 1334 / Behavior of gene caused by administration of chemical substance, Gene No. 6620: Unigene No. Rn.120914; for Behavior of gene caused by administration of chemical substance, Gene No. 6303: Unigene No. Rn.123063; for Behavior of gene caused by administration of chemical substance, Gene No. 5878: Unigene No. Rn.143213; for Behavior of gene caused by administration of chemical substance, Gene No. 1131: Unigene No. Rn.144946; for Behavior of gene caused by administration of chemical substance, Gene No. 1562: Unigene No. Rn.14744; for Behavior of gene caused by administration of chemical substance, Gene No. 1741: Unigene No. Rn.1647; for Behavior of gene caused by administration of chemical substance, Gene No. 893: Unigene No. Rn.164817; for Behavior of gene caused by administration of chemical substance, Gene No. 6026: Unigene No. Rn.167685; for Behavior of gene caused by administration of chemical substance, Gene No. 154: Unigene No. Rn.185941; for Behavior of gene caused by administration of chemical substance, Gene No. 1993: Unigene No. Rn.18728; for Behavior of gene caused by administration of chemical substance, Gene No. 813: Unigene No. Rn.201760; for Behavior of gene caused by administration of chemical substance, Gene No. 2494: Unigene No. Rn.23969; for Behavior of gene caused by administration of chemical substance, Gene No. 2546: Unigene No. Rn.24561; for Behavior of gene caused by administration of chemical substance, Gene No. 3776: Unigene No. Rn.43232; for Behavior of gene caused by administration of chemical substance, Gene No. 3929: Unigene No. Rn.4620; for Behavior of gene caused by administration of chemical substance, Gene No. 1119: Unigene No. Rn.9757; for Behavior of gene caused by administration of chemical substance, Gene No. 6742: Unigene No. Rn.9779; for Behavior of gene caused by administration of chemical substance, Gene No. 5634: Unigene No. Rn.9862; for Behavior of gene caused by administration of chemical substance, Gene No. 5726: gene group (D), Unigene No. Rn.9939
How it was run: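 Male F344 SPF rats, 5 weeks old, four per group, dosed by oral gavage once daily for 28 days with test chemical or matched-volume solvent. Liver total RNA profiled on oligo-DNA microarray. Change ≥1.5-fold or ≤1/1.5 versus vehicle counted as significant if its direction matched that seen with other carcinogens.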

[2] = test system: rodent; conditions: classification of the substance (C+/C−); cited from earlier work
[3] = classification of the substance (M+/M−); cited from earlier work
[4] = test system: liver; conditions: classification of the substance (Cr+/Cr−); cited from earlier work

SMILES | Behavior of gene caused by administration of chemical substance, Gene No. 4846 [1] | Behavior of gene caused by administration of chemical substance, Gene No. 2026 [1] | Behavior of gene caused by administration of chemical substance, Gene No. 4218 [1] | Behavior of gene caused by administration of chemical substance, Gene No. 6182 [1] | Behavior of gene caused by administration of chemical substance, Gene No. 5600 [1] | Behavior of gene caused by administration of chemical substance, Gene No. 1494 [1] | Behavior of gene caused by administration of chemical substance, Gene No. 2045 [1] | Behavior of gene caused by administration of chemical substance, Gene No. 2203 [1] | Behavior of gene caused by administration of chemical substance, Gene No. 533 [1] | Behavior of gene caused by administration of chemical substance, Gene No. 725 [1] | Behavior of gene caused by administration of chemical substance, Gene No. 1163 [1] | Behavior of gene caused by administration of chemical substance, Gene No. 4973 [1] | Behavior of gene caused by administration of chemical substance, Gene No. 4095 [1] | Behavior of gene caused by administration of chemical substance, Gene No. 1334 [1] | Behavior of gene caused by administration of chemical substance, Gene No. 6620 [1] | Behavior of gene caused by administration of chemical substance, Gene No. 6303 [1] | Behavior of gene caused by administration of chemical substance, Gene No. 5878 [1] | Behavior of gene caused by administration of chemical substance, Gene No. 1131 [1] | Behavior of gene caused by administration of chemical substance, Gene No. 1562 [1] | Behavior of gene caused by administration of chemical substance, Gene No. 1741 [1] | further results
Cc1ccc2cc3c(ccc4ccccc43)c3c2c1CC3 [TS048, 3-Methylcholanthrene] | − | + | − | − | − | − | − | − | − | − | − | − | − | − | − | − | − | − | − | − | Behavior of gene caused by administration of chemical substance, Gene No. 893 [1]: −; Behavior of gene caused by administration of chemical substance, Gene No. 6026 [1]: −; Behavior of gene caused by administration of chemical substance, Gene No. 154 [1]: −; Behavior of gene caused by administration of chemical substance, Gene No. 1993 [1]: −; Behavior of gene caused by administration of chemical substance, Gene No. 813 [1]: −; Behavior of gene caused by administration of chemical substance, Gene No. 2494 [1]: −; Behavior of gene caused by administration of chemical substance, Gene No. 2546 [1]: −; Behavior of gene caused by administration of chemical substance, Gene No. 3776 [1]: −; Behavior of gene caused by administration of chemical substance, Gene No. 3929 [1]: −; Behavior of gene caused by administration of chemical substance, Gene No. 1119 [1]: −; Behavior of gene caused by administration of chemical substance, Gene No. 6742 [1]: −; Behavior of gene caused by administration of chemical substance, Gene No. 5634 [1]: +; Behavior of gene caused by administration of chemical substance, Gene No. 5726 [1]: +; Carcinogenicity [2]: C+; Mutagenicity by Ames test [3]: M+; Liver carcinogenicity [4]: Cr−
CCN(N=O)C(N)=O [TS050, N-Ethyl-N-nitrosourea] | − | − | − | + | − | − | − | − | − | − | − | − | − | − | − | + | − | − | − | − | Behavior of gene caused by administration of chemical substance, Gene No. 893 [1]: −; Behavior of gene caused by administration of chemical substance, Gene No. 6026 [1]: −; Behavior of gene caused by administration of chemical substance, Gene No. 154 [1]: −; Behavior of gene caused by administration of chemical substance, Gene No. 1993 [1]: −; Behavior of gene caused by administration of chemical substance, Gene No. 813 [1]: −; Behavior of gene caused by administration of chemical substance, Gene No. 2494 [1]: −; Behavior of gene caused by administration of chemical substance, Gene No. 2546 [1]: −; Behavior of gene caused by administration of chemical substance, Gene No. 3776 [1]: −; Behavior of gene caused by administration of chemical substance, Gene No. 3929 [1]: −; Behavior of gene caused by administration of chemical substance, Gene No. 1119 [1]: −; Behavior of gene caused by administration of chemical substance, Gene No. 6742 [1]: −; Behavior of gene caused by administration of chemical substance, Gene No. 5634 [1]: −; Behavior of gene caused by administration of chemical substance, Gene No. 5726 [1]: +; Carcinogenicity [2]: C+; Mutagenicity by Ames test [3]: M+; Liver carcinogenicity [4]: Cr−
